Experimental data taken from patent US20100261710A1, “HDAC Inhibitors” (ARQULE, INC., priority 2007, published 2010).
Where two headings read alike, the source gives them in different places.

Experiments:
[1] = system: HCT-116 cells; assay: MTS cell viability assay, HCT-116; assay type: cell-based; settings: Homo sapiens
Protocol: (§1) The MTS cell viability assay was used to determine the potency of proliferation inhibitor with. MTS measures mitochondrial dehydrogenase activity and serves as surrogate readout for the number of viable cells.
(§2) For MTS assay, cells were plated in 96-well plates at 2000 cells per well and incubated in the presence of compounds for 72 hr. MTS was added to each well as instructed by manufacture (Promega) and plates were incubated for 4 h at 37° C. The absorbance of each well was measured at 490 nm using a microplate reader.

[2] = biological target: HDAC5 (Homo sapiens, UniProt Q9UQL6); assay: HDAC isoform assay, HDAC5
[3] = system: MJ cells; assay: MTS cell viability assay, MJ; assay type: cell-based; settings: 72 hr, read-out: MJ, IG50, MTS
Protocol: as §1, §2

[4] = biological target: T1, HDAC8 (Homo sapiens, UniProt Q9BY41); assay: HDAC isoform assay, HDAC8
T1 sequence (Q9BY41 1-377): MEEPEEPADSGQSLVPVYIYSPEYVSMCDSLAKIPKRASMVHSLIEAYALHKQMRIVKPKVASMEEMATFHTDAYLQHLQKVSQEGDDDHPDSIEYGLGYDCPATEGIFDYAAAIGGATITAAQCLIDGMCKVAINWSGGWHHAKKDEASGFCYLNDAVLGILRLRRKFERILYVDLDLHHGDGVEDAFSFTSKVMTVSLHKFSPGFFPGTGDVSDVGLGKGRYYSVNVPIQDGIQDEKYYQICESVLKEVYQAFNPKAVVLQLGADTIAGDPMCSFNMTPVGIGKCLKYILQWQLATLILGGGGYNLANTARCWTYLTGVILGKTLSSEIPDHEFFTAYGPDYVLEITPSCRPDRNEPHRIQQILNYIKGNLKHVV

[5] = biological target: T2, HDAC1 (Homo sapiens, UniProt Q13547); assay: HDAC-1 immunocapture fluorescent biochemical assay (HeLa lysate); settings: HDAC1 immunocaptured from HeLa extract
T2 construct: cell extract containing HDAC (HeLa in these experiments); endogenous in cells; host or cells: HeLa cell extract
Protocol: The HDAC-1 assay represents a novel immunocapture assay procedure. […] The HDAC1 is captured on a protein A coated plate using HDAC1 specific antibody, and is then allowed to react with the substrate.
This assay in performed in four general steps. In the first step (FIG. 1A), cell extract containing HDAC (HeLa in these experiments) is incubated with (cell signaling) rabbit polyclonal HDAC1 antibody (rabbit IgG antibody is used for background control) to allow binding of the enzyme to the antibody. In the second step, the complexed mixture is added to the protein A covered plate which captures the antibody. In the third step, after washing away unbound proteins, substrate and inhibitor are added and deacetylation is allowed to occur. […] The plate is then read on either Victor or Perkin Elmer Envision system using Umbilliferone filter set.
• A. HeLa extract complexed with HDAC1 antibody working solution (in DPBS):
Compound working solution (in HDAC buffer):
Compounds diluted in assay buffer at 2× Screening concentration. • D. Activator solution:
Trypsin (10 mg/mL) diluted 1:1600 in assay buffer containing 4 μM TSA.
Complexing of extract with antibody was carried out at room temperature for 60 min with rocking. Binding of complexes onto protein A plate was carried out at room temperature for 60 min in 50 μL. Reaction was carried out in […], in the protein A plate for 60 minutes at 37° C. 40 μL of the reaction was moved into white ½ area plate for activation and reading.
• 1. Set PIERCE Protein A plate to block with 150 μof 5% BSA in TB ST for 60 min at room temperature. • 2. […] Dilute complexes further ([…]) by addition of 3.5 mL of PBS (final total volume of 5 mL). • 4. Wash blocked protein A plate prior to complex addition with TBST. • 5. Add 50 μl of diluted complexes to Protein A plate and incubate for 60 min at room temperature. • 6. Wash plate with TB ST. • 7. Add 25 μl of diluted compounds (in HDAC buffer) to each well and incubate for 10 min at room temperature. • 8. […] Move 40 μl of reaction to a white plate and add 20 μl of activator/developer solution, mix thoroughly. • 10. Read plate.

[6] = system: HH cells; assay: MTS cell viability assay, HH; assay type: cell-based; settings: Homo sapiens, 72 hr, read-out: HH, IG50, MTS
Protocol: The MTS cell viability assay was used to determine the potency of proliferation inhibitor with. MTS measures mitochondrial dehydrogenase activity and serves as surrogate readout for the number of viable cells. The protocol described below is based upon the “CellTiter 96 Aqueous Non-Radioactive Cell Proliferation Assay” sold by Promega (Technical Bulletin No. 169).
as §2

[7] = HCT-116, 72 h, read-out: HCT-116, IG50, MTS (uM)
[8] = HCT-116, 72 hr, read-out: HCT-116, IG50, MTS

T2 sequence (Q13547 whole entry): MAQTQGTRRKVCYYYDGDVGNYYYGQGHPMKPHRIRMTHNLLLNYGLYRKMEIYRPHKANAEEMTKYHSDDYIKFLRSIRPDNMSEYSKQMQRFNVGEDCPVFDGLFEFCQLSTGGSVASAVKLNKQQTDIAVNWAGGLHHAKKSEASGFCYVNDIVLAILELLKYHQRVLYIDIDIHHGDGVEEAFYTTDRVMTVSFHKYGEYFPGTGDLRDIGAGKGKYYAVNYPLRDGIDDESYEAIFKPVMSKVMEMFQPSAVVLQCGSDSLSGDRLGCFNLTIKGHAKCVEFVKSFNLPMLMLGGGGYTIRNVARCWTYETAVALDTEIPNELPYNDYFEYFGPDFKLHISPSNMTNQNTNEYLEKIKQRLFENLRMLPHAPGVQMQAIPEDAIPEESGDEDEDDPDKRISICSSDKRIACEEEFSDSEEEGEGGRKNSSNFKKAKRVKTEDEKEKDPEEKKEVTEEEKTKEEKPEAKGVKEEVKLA
HDAC5, sequence (Q9UQL6 whole entry, canonical isoform): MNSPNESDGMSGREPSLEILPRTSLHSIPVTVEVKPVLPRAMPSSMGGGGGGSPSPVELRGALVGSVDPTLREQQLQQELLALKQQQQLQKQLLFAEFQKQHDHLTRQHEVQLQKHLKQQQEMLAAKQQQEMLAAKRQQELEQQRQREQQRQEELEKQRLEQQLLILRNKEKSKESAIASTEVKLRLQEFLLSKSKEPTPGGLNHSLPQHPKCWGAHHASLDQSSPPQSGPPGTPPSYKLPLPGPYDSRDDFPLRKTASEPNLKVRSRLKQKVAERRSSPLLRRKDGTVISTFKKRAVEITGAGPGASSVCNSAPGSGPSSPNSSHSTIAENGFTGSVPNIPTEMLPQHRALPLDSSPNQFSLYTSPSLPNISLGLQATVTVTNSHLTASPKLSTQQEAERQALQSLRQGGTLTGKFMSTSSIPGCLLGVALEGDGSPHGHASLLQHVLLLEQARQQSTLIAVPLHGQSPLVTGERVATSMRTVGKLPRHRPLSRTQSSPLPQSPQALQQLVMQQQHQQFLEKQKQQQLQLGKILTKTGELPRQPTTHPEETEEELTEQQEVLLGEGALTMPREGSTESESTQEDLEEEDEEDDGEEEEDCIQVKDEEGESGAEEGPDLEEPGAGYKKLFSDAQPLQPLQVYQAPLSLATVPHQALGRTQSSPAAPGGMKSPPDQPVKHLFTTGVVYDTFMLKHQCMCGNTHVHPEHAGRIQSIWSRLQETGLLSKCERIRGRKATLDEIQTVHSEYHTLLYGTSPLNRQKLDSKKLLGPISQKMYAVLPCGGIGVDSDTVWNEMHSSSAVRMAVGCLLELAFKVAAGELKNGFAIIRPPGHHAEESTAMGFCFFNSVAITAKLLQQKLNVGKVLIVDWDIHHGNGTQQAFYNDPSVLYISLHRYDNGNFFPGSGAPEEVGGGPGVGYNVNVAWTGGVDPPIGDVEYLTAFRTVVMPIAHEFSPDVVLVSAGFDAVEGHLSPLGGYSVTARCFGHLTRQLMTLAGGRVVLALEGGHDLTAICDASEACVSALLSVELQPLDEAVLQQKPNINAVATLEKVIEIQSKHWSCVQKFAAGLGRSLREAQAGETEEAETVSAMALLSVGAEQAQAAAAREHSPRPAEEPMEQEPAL

Row | SMILES | IC50 [1, 7] [µM] | IC50 [2] [nM] | IC50 [3] [nM] | IC50 [4] [nM] | IC50 [5] [nM] | IC50 [6] [nM] | IC50 [1, 8] [µM]
1 | O=C(CCCCCNC(=O)c1cn2c3c(cccc13)CCC2)NO [compound 2, N-[6-(hydroxyamino)-6-oxohexyl]-5,6-dihydro-4H-pyrrolo[3,2,1-ij]quinoline-1-carboxamide] | 0.63 | 91.1 | 5000 | 1090 | 13.2 | 1720 | –
2 | O=C(CCCCCCNC(=O)c1cn2c3c(cccc13)CCC2)NO [compound 3, N-[7-(hydroxyamino)-7-oxoheptyl]-5,6-dihydro-4H-pyrrolo[3,2,1-ij]quinoline-1-carboxamide] | 0.215 | 95 | 120 | 408 | 41 | 111 | –
3 | O=C(CCCCCNC(=O)C(=O)c1cn2c3c(cccc13)CCC2)NO [compound 8, 6-{[5,6-dihydro-4H-pyrrolo[3,2,1-ij]quinolin-1-yl(oxo)acetyl]amino}-N-hydroxyhexanamide] | 0.737 | 163 | 7680 | 9240 | 45 | 2620 | –
4 | O=C(CCCNC(=O)C(=O)c1cn2c3c(cccc13)CCC2)NO [compound 9, 4-{[5,6-dihydro-4H-pyrrolo[3,2,1-ij]quinolin-1-yl(oxo)acetyl]amino}-N-hydroxybutanamide] | 5.02 | – | 4110 | 10000 | 583 | 365 | –
5 | O=C(CCCCCCNC(=O)Nc1cn2c3c(cccc13)CCC2)NO [compound 11, 7-[(5,6-dihydro-4H-pyrrolo[3,2,1-ij]quinolin-1-ylcarbamoyl)amino]-N-hydroxyheptanamide] | – | 353 | 470 | 492 | 22 | 94 | 0.492
6 | O=C(CCCCCCNC(=O)C(=O)c1cn2c3c(cccc13)CCC2)NO [compound 12, 7-{[5,6-dihydro-4H-pyrrolo[3,2,1-ij]quinolin-1-yl(oxo)acetyl]amino}-N-hydroxyheptanamide] | – | 260 | 130 | 6420 | 90.4 | 45 | 0.701
7 | O=C(CCCCCNC(=O)Nc1cn2c3c(cccc13)CCC2)NO [compound 13, 6-[(5,6-dihydro-4H-pyrrolo[3,2,1-ij]quinolin-1-ylcarbamoyl)amino]-N-hydroxyhexanamide] | – | 201 | – | 918 | 18.9 | 1020 | 0.636
